Laboratory results from ChEMBL document CHEMBL6114946, “Development and characterization of pyridyl carboxamides as potent and highly selective Nav1.8 inhibitors” (Bioorg Med Chem Lett, 2025).
Converted amounts (≈) assume the structure as drawn. The source made the active and inactive calls. The rule behind the calls is not given here.

What was measured:
[1] = biological target: T1, Sodium channel protein type 10 subunit alpha (Homo sapiens, UniProt Q9Y5Y9); assay: Inhibition of Nav1.8 (unknown origin) at 10 uM by Ionflux high-throughput automated patch method
Target sequence in this assay (Q9Y5Y9 whole entry, looked up): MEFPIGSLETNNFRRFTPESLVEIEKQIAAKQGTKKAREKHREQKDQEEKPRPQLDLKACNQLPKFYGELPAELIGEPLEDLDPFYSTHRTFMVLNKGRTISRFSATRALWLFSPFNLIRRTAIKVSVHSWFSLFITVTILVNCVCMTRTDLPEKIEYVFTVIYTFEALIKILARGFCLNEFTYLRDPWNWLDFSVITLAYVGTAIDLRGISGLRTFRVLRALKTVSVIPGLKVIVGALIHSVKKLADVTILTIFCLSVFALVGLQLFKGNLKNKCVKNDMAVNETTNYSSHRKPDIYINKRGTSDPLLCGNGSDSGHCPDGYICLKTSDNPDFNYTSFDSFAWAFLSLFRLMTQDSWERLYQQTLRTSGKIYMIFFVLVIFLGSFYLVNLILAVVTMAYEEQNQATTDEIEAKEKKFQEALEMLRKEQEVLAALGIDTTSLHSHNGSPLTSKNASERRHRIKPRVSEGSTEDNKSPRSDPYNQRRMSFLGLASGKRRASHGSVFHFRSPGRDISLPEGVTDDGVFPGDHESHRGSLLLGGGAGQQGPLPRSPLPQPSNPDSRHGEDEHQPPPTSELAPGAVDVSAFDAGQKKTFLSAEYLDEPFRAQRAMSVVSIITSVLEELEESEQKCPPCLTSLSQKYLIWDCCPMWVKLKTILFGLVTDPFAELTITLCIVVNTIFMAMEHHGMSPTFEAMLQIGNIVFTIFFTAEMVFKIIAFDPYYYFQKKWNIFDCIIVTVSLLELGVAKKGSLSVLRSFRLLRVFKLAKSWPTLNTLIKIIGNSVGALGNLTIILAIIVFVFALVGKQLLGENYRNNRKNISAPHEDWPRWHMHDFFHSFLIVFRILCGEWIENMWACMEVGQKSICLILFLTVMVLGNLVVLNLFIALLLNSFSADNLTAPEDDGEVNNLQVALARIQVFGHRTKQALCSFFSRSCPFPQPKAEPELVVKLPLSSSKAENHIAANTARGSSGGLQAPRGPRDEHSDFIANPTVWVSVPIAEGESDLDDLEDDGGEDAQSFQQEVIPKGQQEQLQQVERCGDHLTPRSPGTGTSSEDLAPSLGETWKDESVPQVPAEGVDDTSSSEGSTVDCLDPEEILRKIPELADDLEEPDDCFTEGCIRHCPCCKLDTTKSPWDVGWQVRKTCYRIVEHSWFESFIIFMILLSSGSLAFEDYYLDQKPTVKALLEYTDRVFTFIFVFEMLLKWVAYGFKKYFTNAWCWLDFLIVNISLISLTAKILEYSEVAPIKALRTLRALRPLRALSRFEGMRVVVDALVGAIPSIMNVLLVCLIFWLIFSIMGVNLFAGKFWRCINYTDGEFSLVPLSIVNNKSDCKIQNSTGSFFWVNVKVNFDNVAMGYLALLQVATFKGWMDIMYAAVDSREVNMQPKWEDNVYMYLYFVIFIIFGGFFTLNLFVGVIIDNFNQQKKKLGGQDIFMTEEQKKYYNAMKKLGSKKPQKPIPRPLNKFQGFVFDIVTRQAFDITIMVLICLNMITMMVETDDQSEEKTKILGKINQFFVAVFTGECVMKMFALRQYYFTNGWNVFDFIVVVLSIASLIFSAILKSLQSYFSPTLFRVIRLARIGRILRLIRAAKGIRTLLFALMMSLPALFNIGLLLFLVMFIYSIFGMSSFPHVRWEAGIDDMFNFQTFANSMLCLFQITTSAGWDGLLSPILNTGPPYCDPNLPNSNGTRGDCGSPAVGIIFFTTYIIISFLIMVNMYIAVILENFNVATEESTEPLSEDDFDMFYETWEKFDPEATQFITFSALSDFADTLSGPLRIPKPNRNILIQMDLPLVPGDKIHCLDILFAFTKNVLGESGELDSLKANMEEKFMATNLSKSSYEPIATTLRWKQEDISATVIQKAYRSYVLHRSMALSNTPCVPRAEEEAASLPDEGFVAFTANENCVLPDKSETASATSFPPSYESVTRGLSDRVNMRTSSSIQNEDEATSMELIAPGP

[2] = biological target: T1, Sodium channel protein type 10 subunit alpha; assay: Inhibition of human Nav1.8 with resting membrane potential at half inactivated state by PatchXpress high-throughput electrophysiology method
Target sequence in this assay (Q9Y5Y9 whole entry): as the sequence (Q9Y5Y9 whole entry, looked up) above

[3] = Inhibition of Nav1.5 (domain 1 and 2)-Nav 1.8 (domain 3 and 4) chimera (unknown origin) with resting membrane potential at half inactivated state by PatchXpress high-throughput electrophysiology method; design: species or system Homo sapiens
[4] = Oral bioavailability in rat at 10 mg/kg; format: ADME, organism-based; details: in vivo
Cytochrome P450 3A4 = Cytochrome P450 3A4 (Homo sapiens, UniProt P08684); assay: Inhibition of CYP3A4 (unknown origin); format: ADME
[5] = biological target: Nav1.2 (sodium channel protein type 2 subunit alpha) (Homo sapiens, UniProt Q99250); assay: Inhibition of Nav1.2 (unknown origin) at 30 uM relative to control; format: toxicity
[6] = Kinetic solubility of the compound in pH 7.4 phosphate buffered saline measured after 2 hrs by LC/MS analysis; format: physicochemical; details: read-out: Kinetic_solubility
[7] = biological target: Sodium channel protein type 10 subunit alpha (Mus musculus, UniProt Q6QIY3); assay: Inhibition of mouse Nav1.8 with resting membrane potential at half inactivated state by PatchXpress high-throughput electrophysiology method
[8] = Protein binding in human plasma assessed as unbound fraction; format: ADME, cell-free
[9] = biological target: Nav1.6 (sodium channel protein type 8 subunit alpha) (Homo sapiens, UniProt Q9UQD0); assay: Inhibition of Nav1.6 (unknown origin) at 30 uM relative to control; format: toxicity
[10] = biological target: Nav1.3 (sodium channel protein type 3 subunit alpha) (Homo sapiens, UniProt Q9NY46); assay: Inhibition of Nav1.3 (unknown origin) at 30 uM relative to control; format: toxicity
Cytochrome P450 1A2 = biological target: T2, Cytochrome P450 1A2 (Homo sapiens, UniProt P05177); assay: Inhibition of CYP1A2 (unknown origin); format: ADME
T2 sequence (P05177 whole entry): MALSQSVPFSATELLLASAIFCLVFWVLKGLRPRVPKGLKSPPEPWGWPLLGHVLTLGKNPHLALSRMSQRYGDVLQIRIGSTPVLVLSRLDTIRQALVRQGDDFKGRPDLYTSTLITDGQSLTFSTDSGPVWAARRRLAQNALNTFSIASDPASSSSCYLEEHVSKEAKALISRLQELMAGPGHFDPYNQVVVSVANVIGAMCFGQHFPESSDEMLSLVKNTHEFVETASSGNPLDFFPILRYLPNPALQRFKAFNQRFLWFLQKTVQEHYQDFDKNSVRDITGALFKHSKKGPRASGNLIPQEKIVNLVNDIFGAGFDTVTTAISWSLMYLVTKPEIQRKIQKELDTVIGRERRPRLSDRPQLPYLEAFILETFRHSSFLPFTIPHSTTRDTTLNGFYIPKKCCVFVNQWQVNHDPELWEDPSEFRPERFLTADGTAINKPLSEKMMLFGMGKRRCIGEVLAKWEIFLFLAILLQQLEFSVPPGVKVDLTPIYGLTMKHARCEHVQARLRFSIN

[11] = biological target: T1, Sodium channel protein type 10 subunit alpha; assay: Inhibition of human Nav1.8 with resting membrane potential by PatchXpress high-throughput electrophysiology method
Target sequence in this assay (Q9Y5Y9 whole entry): as the sequence (Q9Y5Y9 whole entry, looked up) above

[12] = Volume of distribution at steady state in rat at 1 mg/kg, iv; format: ADME, organism-based; details: in vivo, read-out: Vdss
[13] = biological target: Nav1.4 (sodium channel protein type 4 subunit alpha) (Homo sapiens, UniProt P35499); assay: Inhibition of Nav1.4 (unknown origin) at 30 uM relative to control; format: toxicity
[14] = Ratio of drug level in rat brain to plasma at 1 mg/kg, iv measured after 60 mins; format: ADME, organism-based; details: read-out: BPR
[15] = Stability in human liver microsomes assessed as parent compound remaining measured after 60 mins; format: ADME, Microsome; details: read-out: Stability
[16] = biological target: Nav1.5 (sodium channel protein type 5 subunit alpha) (Homo sapiens, UniProt Q14524); assay: Inhibition of Nav1.5 (unknown origin) at 30 uM relative to control; format: toxicity
[17] = Oral bioavailability in dog at 10 mg/kg; format: ADME, organism-based, Canis lupus familiaris; details: in vivo
[18] = Volume of distribution at steady state in cynomolgus monkey at 1 mg/kg, iv; format: ADME, organism-based, Macaca fascicularis; details: in vivo, read-out: Vdss
[19] = biological target: Nav1.7 (sodium channel protein type 9 subunit alpha) (Homo sapiens, UniProt Q15858); assay: Inhibition of Nav1.7 (unknown origin) at 30 uM relative to control; format: toxicity
[20] = Apparent permeability in MDCK-MDR1 cells; format: ADME, cell-based, Canis lupus familiaris; details: dog
[21] = Clearance in cynomolgus monkey at 1 mg/kg; format: ADME, organism-based, Macaca fascicularis; details: in vivo
[22] = biological target: Nav1.1 (sodium channel protein type 1 subunit alpha) (Homo sapiens, UniProt P35498); assay: Inhibition of Nav1.1 (unknown origin) at 30 uM relative to control; format: toxicity
[23] = Oral bioavailability in cynomolgus monkey at 10 mg/kg; format: ADME, organism-based, Macaca fascicularis; details: in vivo
[24] = Volume of distribution at steady state in dog at 1 mg/kg, iv; format: ADME, organism-based, Canis lupus familiaris; details: in vivo, read-out: Vdss
[25] = Clearance in rat at 1 mg/kg; format: ADME, organism-based; details: in vivo
[26] = biological target: T1, Sodium channel protein type 10 subunit alpha; assay: Inhibition of Nav1.8 (unknown origin) over expressed in HEK cells exposed to 1st depolarizing pulse at 10 Hz train of action potential at 12 nM; format: cell-based
Target sequence in this assay (Q9Y5Y9 whole entry, looked up): as the sequence (Q9Y5Y9 whole entry, looked up) above

[27] = biological target: T1, Sodium channel protein type 10 subunit alpha; assay: Inhibition of Nav1.8 (unknown origin) over expressed in HEK cells exposed to 120th depolarizing pulse at 10 Hz train of action potential at 12 nM; format: cell-based
Target sequence in this assay (Q9Y5Y9 whole entry, looked up): as the sequence (Q9Y5Y9 whole entry, looked up) above

[28] = Clearance in dog at 1 mg/kg; format: ADME, organism-based, Canis lupus familiaris; details: in vivo
[29] = biological target: Voltage-gated inwardly rectifying potassium channel KCNH2 (Homo sapiens, UniProt Q12809); assay: Inhibition of human ERG; format: toxicity
[30] = Efflux ratio of apparent permeability in MDCK-MDR1 cells; format: ADME, cell-based, Canis lupus familiaris; details: dog
[31] = biological target: T1, Sodium channel protein type 10 subunit alpha; assay: Inhibition of Nav1.8 (unknown origin) over expressed in HEK cells assessed as reduction in deltamethrin-stimulated channel activation by FLIPR assay; format: cell-based
Target sequence in this assay (Q9Y5Y9 whole entry): as the sequence (Q9Y5Y9 whole entry, looked up) above

[32] = Half life in rat; format: ADME; details: in vivo
[33] = Genotoxicity in Salmonella typhimurium by Ames test; format: toxicity; details: salmonella enterica subsp. enterica serovar typhimurium

Sodium channel protein type 10 subunit alpha (Mus musculus, UniProt Q6QIY3), sequence (Q6QIY3 whole entry): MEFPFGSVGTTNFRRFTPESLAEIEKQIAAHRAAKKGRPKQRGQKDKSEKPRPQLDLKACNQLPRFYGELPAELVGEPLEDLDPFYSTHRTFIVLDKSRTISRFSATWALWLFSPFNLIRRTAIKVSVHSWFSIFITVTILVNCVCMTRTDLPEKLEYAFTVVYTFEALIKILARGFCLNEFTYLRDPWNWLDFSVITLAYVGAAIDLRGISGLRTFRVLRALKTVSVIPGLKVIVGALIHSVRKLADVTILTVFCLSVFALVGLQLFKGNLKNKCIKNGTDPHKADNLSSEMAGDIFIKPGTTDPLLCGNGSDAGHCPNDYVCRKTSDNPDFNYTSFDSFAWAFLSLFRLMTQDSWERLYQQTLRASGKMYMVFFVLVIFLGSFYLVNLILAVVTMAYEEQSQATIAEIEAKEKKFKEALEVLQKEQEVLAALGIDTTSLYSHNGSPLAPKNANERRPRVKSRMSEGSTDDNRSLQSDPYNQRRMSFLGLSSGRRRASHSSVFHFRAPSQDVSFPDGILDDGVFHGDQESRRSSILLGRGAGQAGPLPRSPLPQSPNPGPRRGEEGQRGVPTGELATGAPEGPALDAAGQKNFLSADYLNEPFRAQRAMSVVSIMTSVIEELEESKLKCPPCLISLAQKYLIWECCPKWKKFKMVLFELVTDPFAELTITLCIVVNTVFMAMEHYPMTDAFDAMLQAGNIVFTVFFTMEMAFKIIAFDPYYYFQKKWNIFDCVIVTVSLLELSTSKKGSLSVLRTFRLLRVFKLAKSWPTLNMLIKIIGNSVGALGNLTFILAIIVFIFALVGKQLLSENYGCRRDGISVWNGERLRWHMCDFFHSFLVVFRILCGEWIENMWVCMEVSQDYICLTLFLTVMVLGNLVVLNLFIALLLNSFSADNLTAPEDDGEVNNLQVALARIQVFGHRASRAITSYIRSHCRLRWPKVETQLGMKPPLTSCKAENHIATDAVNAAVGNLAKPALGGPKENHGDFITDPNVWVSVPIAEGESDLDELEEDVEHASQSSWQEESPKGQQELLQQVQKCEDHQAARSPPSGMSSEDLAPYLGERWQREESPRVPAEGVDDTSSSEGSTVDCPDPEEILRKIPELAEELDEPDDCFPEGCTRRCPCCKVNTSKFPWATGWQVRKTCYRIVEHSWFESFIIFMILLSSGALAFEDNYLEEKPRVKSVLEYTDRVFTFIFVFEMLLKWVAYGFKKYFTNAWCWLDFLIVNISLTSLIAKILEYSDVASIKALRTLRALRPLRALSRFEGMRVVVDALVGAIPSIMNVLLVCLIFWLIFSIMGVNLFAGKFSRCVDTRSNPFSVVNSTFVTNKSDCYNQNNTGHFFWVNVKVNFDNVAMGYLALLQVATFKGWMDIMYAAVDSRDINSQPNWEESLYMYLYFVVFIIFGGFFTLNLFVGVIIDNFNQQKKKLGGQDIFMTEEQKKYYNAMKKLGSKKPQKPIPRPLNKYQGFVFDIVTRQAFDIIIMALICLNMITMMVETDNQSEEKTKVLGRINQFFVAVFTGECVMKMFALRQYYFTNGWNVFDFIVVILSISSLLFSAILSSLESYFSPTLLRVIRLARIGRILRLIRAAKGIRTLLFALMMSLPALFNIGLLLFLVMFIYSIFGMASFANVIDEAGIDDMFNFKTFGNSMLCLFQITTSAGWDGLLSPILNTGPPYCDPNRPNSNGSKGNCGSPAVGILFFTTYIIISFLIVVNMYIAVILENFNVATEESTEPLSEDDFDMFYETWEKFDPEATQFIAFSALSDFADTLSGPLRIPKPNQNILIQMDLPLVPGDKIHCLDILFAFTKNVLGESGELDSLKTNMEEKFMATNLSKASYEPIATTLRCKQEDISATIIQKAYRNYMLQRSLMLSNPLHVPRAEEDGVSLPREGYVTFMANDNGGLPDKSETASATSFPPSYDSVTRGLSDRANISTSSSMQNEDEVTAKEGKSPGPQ
Cytochrome P450 3A4, sequence (P08684 whole entry): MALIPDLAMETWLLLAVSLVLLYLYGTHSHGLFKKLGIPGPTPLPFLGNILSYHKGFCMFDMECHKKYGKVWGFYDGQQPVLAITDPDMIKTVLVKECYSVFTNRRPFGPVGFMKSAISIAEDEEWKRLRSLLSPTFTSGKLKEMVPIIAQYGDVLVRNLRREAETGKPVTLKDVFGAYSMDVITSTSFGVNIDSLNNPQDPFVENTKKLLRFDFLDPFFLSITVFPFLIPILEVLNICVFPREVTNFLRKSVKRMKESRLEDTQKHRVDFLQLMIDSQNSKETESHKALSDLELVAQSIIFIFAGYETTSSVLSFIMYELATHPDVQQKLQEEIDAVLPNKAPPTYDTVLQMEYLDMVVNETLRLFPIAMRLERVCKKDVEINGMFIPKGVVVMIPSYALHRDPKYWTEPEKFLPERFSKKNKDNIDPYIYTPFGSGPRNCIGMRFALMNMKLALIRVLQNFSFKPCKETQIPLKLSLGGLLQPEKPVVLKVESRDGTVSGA

With `COc1cc(F)ccc1Oc1nccnc1C(=O)Nc1cccc(S(C)(=O)=O)c1` the inhibition [1] was “inactive” and the IC50 [2] was over 10000 nM.

`CS(=N)(=O)c1cccc(NC(=O)c2cc(C(F)(F)F)cnc2Oc2ccc(F)cc2Cl)c1` (stereo not given) showed an IC50 [3] of 9310 nM, a bioavailability [4] of 86% and an INH (Cytochrome P450 3A4) of over 30 µM. The inhibition [1] was “Active”, the inhibition at 30 µM [5] was under 25% and the solubility kinetic at 2 h [6] was 26 µg/mL (≈ 53.3 µM). It also gave an IC50 [7] of 660 nM, a fraction unbound [8] of 0.073 and an inhibition at 30 µM [9] of under 25%. The inhibition at 30 µM [10] was under 25%, the INH (Cytochrome P450 1A2) was over 30 µM and the IC50 [2] was 12 nM. It also gave an IC50 [11] of 43 nM, a Vd [12] of 1.9 L/kg and an inhibition at 30 µM [13] of under 25%. For the same molecule, the Kp at 1 h [14] was 0.89, the remaining at 1 h [15] was over 95% and the inhibition at 30 µM [16] was under 25%. It also gave a bioavailability [17] of 61%, a Vd [18] of 2.9 L/kg and an inhibition at 30 µM [19] of under 25%. For the same molecule, the Papp [20] was 15.5 ×10⁻⁶ cm/s, the clearance [21] was 2.5 mL/min/kg and the inhibition at 30 µM [22] was under 25%. It also gave a bioavailability [23] of 98%, a Vd [24] of 2 L/kg and a clearance [25] of 5.9 mL/min/kg. For the same molecule, the inhibition [26] was 25.4%, the inhibition [27] was 24.9% and the clearance [28] was 3.6 mL/min/kg. It also gave an IC50 [29] of over 30000 nM and an efflux ratio [30] of 0.8.

With `COc1cc(F)ccc1Oc1ncc(C(F)(F)F)cc1C(=O)Nc1ccccn1` the inhibition [1] was “Active” and the IC50 [31] was over 5000 nM.

For `COc1cc(F)ccc1Oc1ncc(C(F)(F)F)cc1C(=O)Nc1cccc([S+](C)[O-])c1` (stereo not given), the inhibition [1] was “Active” and the IC50 [2] was 40 nM.

In the case of `COc1cc(F)ccc1Oc1ncc(C(F)(F)F)cc1C(=O)Nc1ccnnc1`, the inhibition [1] is reported as “Active”, the solubility kinetic at 2 h [6] is reported as 70 µg/mL (≈ 171 µM) and the IC50 [2] is reported as 250 nM. It also gave an IC50 [31] of 540 nM.

For `CS(=O)(=O)c1cccc(NC(=O)c2cc(C(F)(F)F)cnc2Oc2cccnc2)c1`, the inhibition [1] was “Active” and the IC50 [31] was over 5000 nM.

In the case of `COc1cc(F)ccc1Oc1ncc(C(F)(F)F)cc1C(=O)Nc1ccncn1`, the inhibition [1] is reported as “Active” and the IC50 [31] is reported as 240 nM.

In the case of `COc1cc(F)ccc1Oc1ncc(C(F)(F)F)cc1C(=O)Nc1cccc(S(C)(=O)=O)c1`, the half-life [32] is reported as 5.6 h, the bioavailability [4] is reported as 14% and the inhibition [1] is reported as “Active”. For the same molecule, the IC50 [2] was 14 nM, the IC50 [31] was 60 nM and the clearance [25] was 16 mL/min/kg.

For `Cc1cc(OC(F)(F)F)ccc1Oc1ncc(C(F)(F)F)cc1C(=O)Nc1cccc(S(C)(=O)=O)c1`, the inhibition [1] was “Active”, the solubility kinetic at 2 h [6] was 1.4 µg/mL (≈ 2.62 µM) and the IC50 [2] was 35 nM.

For `CS(=O)(=O)c1cccc(NC(=O)c2cc(C(F)(F)F)cnc2Oc2ccccc2)c1`, the inhibition [1] was “Active” and the IC50 [31] was 1600 nM.

With `COc1cc(F)ccc1Oc1nc(C(F)(F)F)ncc1C(=O)Nc1cccc(S(C)(=O)=O)c1` the inhibition [1] was “inactive” and the IC50 [2] was over 10000 nM.

For `Cc1cc(F)ccc1Oc1ncc(C(F)(F)F)cc1C(=O)Nc1cccc(S(C)(=O)=O)c1`, the inhibition [1] was “Active” and the IC50 [31] was 120 nM.

In the case of `COc1cc(F)ccc1Oc1ncc(C(F)(F)F)cc1C(=O)NCc1cccnc1N1CCOCC1`, the inhibition [1] is reported as “inactive” and the IC50 [2] is reported as over 10000 nM.

In the case of `CS(=O)(=O)c1cccc(NC(=O)c2cc(C(F)(F)F)cnc2Oc2ccc(OC(F)(F)F)cc2)c1`, the inhibition [1] is reported as “Active”, the solubility kinetic at 2 h [6] is reported as 4 µg/mL (≈ 7.69 µM) and the IC50 [2] is reported as 20 nM.

For `CN=S(C)(=O)c1cccc(NC(=O)c2cc(C(F)(F)F)cnc2Oc2ccc(F)cc2OC)c1` (stereo not given), the inhibition [1] was “Active”, the solubility kinetic at 2 h [6] was 27 µg/mL (≈ 54.3 µM) and the IC50 [2] was 68 nM. The IC50 [31] was 69 nM.

With `CS(=O)(=O)c1cccc(NC(=O)c2cc(C(F)(F)F)cnc2Oc2ccc(F)cc2)c1` the inhibition [1] was “Active” and the IC50 [31] was 2900 nM.

With `COc1cc(F)ccc1Oc1ncccc1C(=O)Nc1cccc(S(C)(=O)=O)c1` the inhibition [1] was “inactive” and the IC50 [2] was over 10000 nM.

In the case of `O=C(Nc1ccc[n+]([O-])c1)c1cc(C(F)(F)F)cnc1Oc1ccc(F)cc1Cl`, the Activity [33] is reported as “Non-toxic”, the INH (Cytochrome P450 3A4) is reported as over 30 µM and the inhibition [1] is reported as “Active”. It also gave a solubility kinetic at 2 h [6] of 0.084 µg/mL (≈ 0.196 µM), an IC50 [7] of 920 nM and a fraction unbound [8] of 0.1. The INH (Cytochrome P450 1A2) was over 30 µM, the IC50 [2] was 56 nM and the remaining at 1 h [15] was 95%. It also gave a clearance [25] of 3.3 mL/min/kg and an IC50 [29] of 15000 nM.
